The text below walks through data of PubChem BioAssay AID1996.

Converted amounts (≈) assume the structure as drawn.

The conditions of this data set: buffer; pH 7.4; 200.0 µM.
A word on the kinetic solubility: it is the concentration staying in solution when a stock, usually in DMSO, is diluted into the medium. As to `Cc1cc(O)c(CN2CC=C(c3ccccc3)CC2)cc1C(C)C`, the kinetic solubility turned out to be 1.2 µg/mL (≈ 3.73 µM). On to `CN1CCCN(C(=O)c2cccc(Br)c2)CC1`, for which the solubility (kinetic) turned out to be 35.4 µg/mL (≈ 119 µM). In turn, `CC1CCCC(C)N1C(=O)Cn1cnc2cc([N+](=O)[O-])ccc2c1=O` (stereo unspecified) yielded a kinetic solubility of over 51.7 µg/mL. Molecule `Cc1c(N)c(C)c([N+](=O)[O-])c(C)c1[N+](=O)[O-]` yielded a solubility (kinetic) of 6.9 µg/mL (≈ 30.6 µM). To `CC1CCCC(C)N1C(=O)COC(=O)CNC(=O)c1ccccc1F` (stereo unspecified) belongs over 52.6 µg/mL. With `CC(C)(C)C1CCC(C(=O)Nc2nccs2)CC1` (stereo unspecified), the kinetic solubility was 0.3 µg/mL (≈ 1.13 µM). For the molecule `CNC(=O)Nc1cc(NC(=O)NC)cc(C(F)(F)F)c1`, the kinetic solubility is over 43.5 µg/mL. To `CC(C)NC(=S)N(CCc1ccncc1)C(C)C` belongs 27.4 µg/mL (≈ 103 µM). To `Cc1ccc(S(=O)(=O)N2CCOCC2)cc1C(=O)OCC(=O)NCCc1ccccc1` belongs over 67 µg/mL; to `CN(C)CCN1CC(O)=C(c2nc3ccccc3s2)C1=N`, 31.5 µg/mL (≈ 104 µM); to `COCC(C)NC(=O)COCc1cc(-c2ccc3c(c2)OCO3)on1` (stereo unspecified), 39 µg/mL (≈ 112 µM).

Molecule `C=CCn1cnc2c(oc3ccccc32)c1=O` returned a kinetic solubility of over 33.9 µg/mL. For `CC(C)CCC(C(=O)O)C(C)CC(=O)NNC(=O)c1ccco1` (stereo unspecified) the value was over 48.7 µg/mL; for `N#Cc1ccc(C(=O)OCC(=O)N2CCCCCC2)cc1`, over 42.9 µg/mL.

The molecule `CC(Oc1ccc2c(-c3ccccc3)cc(=O)oc2c1)C(=O)N1CCOCC1` (stereo unspecified) returned a solubility (kinetic) of over 56.9 µg/mL. As to `O=C(/C=C/c1ccco1)NCCc1ccccc1`, the solubility (kinetic) worked out at 33.1 µg/mL (≈ 137 µM). To `CC(=O)Nc1nc(-c2ccc3ccccc3c2)cs1` belongs under 0.3 µg/mL; to `OC(c1ccc(F)cc1)C(CN1CCOCC1)c1ccccc1` (stereo unspecified), over 47.3 µg/mL. As for `CCCN1C(=O)/C(=C2/C=Cc3ccccc3N2CC)SC1=S`, the kinetic solubility is under 0.4 µg/mL. `Cc1cc(-c2ccccc2)nc2oc3c(c12)NC(=O)CN(c1ccccc1)C3=O`: the kinetic solubility was under 0.3 µg/mL.

On to `O=C(Cn1ccc(=O)[nH]c1=O)NCCO`, for which the kinetic solubility was over 32 µg/mL. In the case of `CCC(C(=O)NC(C)c1ccccc1)C(=O)NC(C)c1ccccc1` (stereo unspecified), the kinetic solubility came to 6.8 µg/mL (≈ 20.1 µM). The molecule `CCOC(=O)c1sc(=NC(=O)c2ccc(Cl)s2)n(C)c1C` displayed a solubility (kinetic) of 0.5 µg/mL (≈ 1.45 µM).

The molecule `CC1(C)Cc2nc3sc(C(=O)NCCCO)c(N)c3cc2CO1` showed a kinetic solubility of over 50.3 µg/mL.

Consider `COc1ccc(CNc2ccc(C)c(C)c2)cc1`, for which the kinetic solubility was found to be 1.5 µg/mL (≈ 6.22 µM). Turning to `Cc1ccc2c(c1)N(CC(=O)NCC1CCCO1)C(=O)CO2` (stereo unspecified), the kinetic solubility is over 45.7 µg/mL. As for `[O-][n+]1c2ccccc2[n+]([O-])c2cc(O)ccc21`, the solubility (kinetic) is over 34.2 µg/mL. In the case of `COc1ccc(/C=C/C(=O)O)cc1S(=O)(=O)N1CCc2ccccc21`, the solubility (kinetic) was over 53.9 µg/mL.

In turn, `CSc1ccc(CNC(C)C(O)c2ccccc2)cc1.Cl` (stereo unspecified) yielded a kinetic solubility of over 48.6 µg/mL. Turning to `CCOc1ccc(/C=C2\SC(=S)N(CCC(=O)O)C2=O)cc1`, the kinetic solubility was found to be 40.9 µg/mL (≈ 121 µM).

As to `CCOc1ccc(NC(=O)C2CCN(S(C)(=O)=O)CC2)cc1`, the kinetic solubility turned out to be 20.2 µg/mL (≈ 61.9 µM). On to `CCOc1ccc(N(CC(=O)Nc2cccc(C)c2)S(C)(=O)=O)cc1`, for which the solubility (kinetic) was found to be 35.6 µg/mL (≈ 98.2 µM). Regarding `Cc1ccc(NS(=O)(=O)c2ccc(Cl)nc2)c(C)c1`, the kinetic solubility is over 44.5 µg/mL. `CCc1c(C)nc(N)nc1N1N=C1SCCOc1ccccc1` had a solubility (kinetic) of over 49.4 µg/mL. For the molecule `O=C(Nc1nccs1)c1ccc2c(c1)OCO2`, the solubility (kinetic) turned out to be 3 µg/mL (≈ 12.1 µM).

`CC(C)CCN1CCN(Cc2cccs2)CC1CCO` (stereo unspecified) displayed a solubility (kinetic) of 39.8 µg/mL (≈ 134 µM).

In turn, `O=C1CSC(c2cccc([N+](=O)[O-])c2)N1C1CC2CCC1C2` (stereo unspecified) gave a kinetic solubility of 11.2 µg/mL (≈ 35.2 µM). On to `Cc1cccc(N2CC(C(=O)NC3CCCCCC3)CC2=O)c1C` (stereo unspecified), for which the solubility (kinetic) is over 49.3 µg/mL. To `O=C(Nc1ccccc1)OCCOc1cccc(Br)c1` belongs 6.6 µg/mL (≈ 19.6 µM). On to `CP(=O)(O)CN1CCCCC1`, for which the solubility (kinetic) came out at 24.9 µg/mL (≈ 141 µM).

Molecule `Cc1ccc(OCCNS(=O)(=O)c2ccc(Cl)cc2)cc1` came in with a solubility (kinetic) of 5.6 µg/mL (≈ 17.2 µM).

In the case of `CS(=O)c1ccc(-n2c(=O)n(Cc3ccccc3)c(=O)c3[nH]cnc32)cc1` (stereo unspecified), the kinetic solubility is over 57.1 µg/mL. For `COc1cc(-c2nnc(SCc3cc(=O)oc4cc(O)c(O)cc34)o2)cc(OC)c1OC` the value was over 68.8 µg/mL.

In the case of `CCOP(=O)(OCC)C(Nc1ccccc1)c1cccnc1` (stereo unspecified), the solubility (kinetic) was over 48 µg/mL.

Turning to `Cc1ccccc1NC(=O)NCCCN1CCN(C)CC1`, the kinetic solubility was over 43.6 µg/mL. For `COc1cccc(-c2cc(C(=O)NC3CCCC3)c3ccccc3n2)c1` the value was 1.3 µg/mL (≈ 3.75 µM); for `CCOC(=O)/C(C)=C1\NC(C)(C)Cc2ccccc21.I`, 18.7 µg/mL.

`COc1ccc(S(=O)(=O)N2CCN(c3cnccn3)CC2)cc1OC` registered a kinetic solubility of over 54.7 µg/mL. Turning to `CCN(C(=O)COC(=O)CCC(=O)c1cccs1)C1CCCCC1`, the kinetic solubility is over 52.7 µg/mL.

Consider `O=C(NCC(=O)N1CCN(Cc2ccccc2)CC1)c1cc(Cl)cc([N+](=O)[O-])c1`, for which the solubility (kinetic) was over 62.5 µg/mL. Take `CCOC(=O)C(=O)Nc1cc(C)on1`: the kinetic solubility was over 29.7 µg/mL.
